Patent EP0625155B1, “PYRROLOIMIDAZOLYL AND IMIDAZOPYRIDINYL SUBSTITUTED 1H-BENZIMIDAZOLE DERIVATIVES AS AROMATASE INHIBITORS” (JANSSEN PHARMACEUTICA N.V., priority 1992, dated 1993)

Tests used:
Plasma estradiol = experiment: Estradiol production in PMSG-injected rats; parameters: species or system Female Wistar rats; details: Rattus norvegicus; 1 mg/kg by gavage three days after 200 I.U. PMSG s.c.; plasma 2 h after administration; % non-recovered relative to untreated controls; read-out: Estradiol in vivo (% inhibition) 1 mg/kg / 2h
Method: Female Wistar rats weighing 150 g were injected with 200 I.U. Pregnant Mare's Serum Gonadotropin (PMSG) (Folligon®) subcutaneously. Three days later 1 mg/kg of the test compound, dissolved in 20% polyethyleneglycol in water, was administered by gavage. Control animals received 20% polyethyleneglycol only. Two hours after drug or placebo administration the animals were killed by decapitation and trunk blood was collected in heparinized tubes. Plasma estradiol was measured using a direct fluorescence immunoassay.

Plasma testosterone = experiment: Testosterone production in LHRH/ACTH-injected rats; parameters: species or system Adult male Wistar rats; details: Rattus norvegicus, po; 10 mg/kg orally by gavage; LHRH/ACTH injected 1 h later; plasma 2 h after stimulation; % non-recovered relative to untreated controls; read-out: Testosterone in vivo (% inhibition) 10 mg/kg / 2h
Method: (§1) Adult male Wistar rats weighing 250 g were starved 24 h before the start of the experiment. Between 8 and 9 a.m. 10 mg/kg of the test compounds were administered orally by gavage. One hour later, the animals were injected intramuscularly with 40 ng of Luteinizing Hormone Releasing Hormone (LHRH) (Receptal®) and 25 µg of Adrenocorticotropic Hormone (ACTH1-24) (Cortrosyn®). To avoid stress, the animals were also anesthetized with 7.5 mg of pentobarbital. Two hours after stimulation, the animals were killed by decapitation and trunk blood was collected in heparinized tubes. […] Corticosterone was measured using radio immunoassay with ^3H-labelled corticosterone and dextrane-coated charcoal to separate bound and free steroid.

Corticosterone = Corticosterone production in LHRH/ACTH-injected rats; parameters: species or system Adult male Wistar rats; details: Rattus norvegicus, po; 10 mg/kg orally by gavage; LHRH/ACTH injected 1 h later; plasma 2 h after stimulation; % non-recovered relative to untreated controls; read-out: Corticosterone in vivo (% inhibition) 10 mg/kg / 2h
Method: as §1

SMILES	inhibition at 1 mg/kg (Plasma estradiol) [%]	inhibition at 10 mg/kg (Plasma testosterone) [%]	inhibition at 10 mg/kg (Corticosterone) [%]
CCCCn1cnc2ccc(C3CCc4cncn43)cc21 (racemic) [compound 22]	91	92.5	35
Cn1cnc2ccc(C3CCc4cncn43)cc21 (racemic) [compound 23]	78	81	31
CCCCCn1cnc2ccc(C3CCc4cncn43)cc21 (racemic) [compound 31]	69	91	28
CCCCCCn1cnc2ccc(C3CCc4cncn43)cc21 (racemic) [compound 32]	65	67	37
CCCn1cnc2ccc(C3CCc4cncn43)cc21 (racemic) [compound 33]	82	98	55
CCCCn1c(CC)nc2ccc(C3CCc4cncn43)cc21 (racemic) [compound 34]	80	12	21
c1cc2ncn(C3CCCCC3)c2cc1C1CCc2cncn21 (racemic) [compound 35]	77	92	22
c1ccc(-n2cnc3ccc(C4CCc5cncn54)cc32)cc1 (racemic) [compound 37]	31	96	22
c1ccc(Cn2cnc3ccc(C4CCc5cncn54)cc32)cc1 (racemic) [compound 38]	42	80	7
CCn1cnc2ccc(C3CCc4cncn43)cc21 (racemic) [compound 39]	90	93	39
c1cc2ncn(C3CC3)c2cc1C1CCc2cncn21 (racemic) [compound 41, (±)-1-cyclopropyl-6-(6,7-dihydro-5H-pyrrolo[1,2-c]imidazol-5-yl)-1H-benzimidazole dinitrate]	89	91	39
CC(C)n1cnc2ccc(C3CCc4cncn43)cc21 (racemic) [compound 42]	93	98	33
c1ccc(-c2nc3cc(C4CCc5cncn54)ccc3[nH]2)cc1 (racemic) [compound 43]	54	64	20
CCCCn1c(NC(=O)OC)nc2ccc(C3CCc4cncn43)cc21 (racemic) [compound 44]	66	66	10
c1nc2cc(C3CCc4cncn43)ccc2[nH]1 (racemic) [compound 46]	77	78	23
Cc1nc2cc(C3CCc4cncn43)ccc2[nH]1 (racemic) [compound 47, (±)-5-(6,7-dihydro-5H-pyrrolo-[1,2-c]imidazol-5-yl)-2-methyl-1H-benzimidazole]	72	85	4
CCCCn1c(O)nc2ccc(C3CCc4cncn43)cc21 (racemic) [compound 48, (±)-1-butyl-6-(6,7-dihydro-5H-pyrrolo[1,2-c]imidazol-5-yl)-1H-benzimidazol-2-ol]	77	93	4
C=CCn1cnc2ccc(C3CCc4cncn43)cc21 (racemic) [compound 49]	81	90	13
